# Molecular target: T1, Human sEH (hsEH) (Homo sapiens, UniProt P34913)
# T1 construct: purchased Cayman Chemicals
# T1 sequence (P34913 1-555): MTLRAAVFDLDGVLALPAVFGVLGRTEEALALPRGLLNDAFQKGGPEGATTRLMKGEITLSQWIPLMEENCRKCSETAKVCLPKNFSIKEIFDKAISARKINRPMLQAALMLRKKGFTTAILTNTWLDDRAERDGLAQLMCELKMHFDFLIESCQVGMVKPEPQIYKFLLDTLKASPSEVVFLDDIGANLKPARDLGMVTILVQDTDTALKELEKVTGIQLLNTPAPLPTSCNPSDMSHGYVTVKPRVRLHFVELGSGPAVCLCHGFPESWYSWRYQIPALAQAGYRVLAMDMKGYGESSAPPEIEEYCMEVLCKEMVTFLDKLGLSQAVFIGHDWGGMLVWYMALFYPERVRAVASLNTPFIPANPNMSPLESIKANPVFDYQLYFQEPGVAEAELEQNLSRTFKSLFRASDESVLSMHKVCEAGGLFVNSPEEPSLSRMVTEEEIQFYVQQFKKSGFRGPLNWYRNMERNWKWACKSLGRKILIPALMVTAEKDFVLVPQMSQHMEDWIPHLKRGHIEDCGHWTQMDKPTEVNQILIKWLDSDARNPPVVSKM
# Assay: fluorescence-based sEH biochemical inhibition assay (PHOME substrate)
# Conditions: Table 1; hsEH 5 nM, PHOME 50 μM, 30° C.
# Description: The benzimidazole-based compounds synthesized according to Example 1 were measured for activity. Using a fluorescence-based sEH biochemical inhibition assay, the IC50 value was measured for each benzimidazole-based compound. Human sEH (hsEH) and its substrate PHOME were purchased from Cayman Chemicals. IC50 values of hsEH inhibitors were determined by fluorescence. IC50 is defined as the concentration of the inhibitor that blocks 50% of the enzymatic activity. To a 96-well plate containing 10 μL enzyme (5 nM in water), 60 μL of H2O and 10 μL BisTris-HCl buffer (25 mM, pH 7.0) were added inhibitors with different concentrations. The mixture was incubated for 5 min at 30° C. prior to addition of 10 μL of PHOME substrate (50 μM). Fluorescence were measured at 30° C. with an excitation wavelength of 330 nm and an emission wavelength of 465 nm using a BioTek H1 plate reader. The IC50 values were calculated by non-linear regression fitting. The curve was generated from at least three separate runs, each in duplicates. Results are given as means and standard deviations. In Table 1, an IC50 value less than or equal to 1 μM is indicated as an “A.” an IC50 value from greater than 1 μM to less than 10 μM is indicated as a “B′” and an IC50 value of greater than or equal to 10 μM is indicated as a “C.”
# Additional benzimidazole-based compounds as described herein were measured for activity according to the procedure outlined in Example 2. Briefly, using a fluorescence-based sEH biochemical inhibition assay, the IC50 value was measured for each benzimidazole-based compound.
row,SMILES,IC50 [µM]
1,"Fc1cc2nc(-c3ccc(C(F)(F)F)cc3)[nH]c2cc1Br [Compound 44, 6-bromo-5-fluoro-2-(4-(trifluoromethyl)phenyl)-1H-benzo[d]imidazole]",≤ 1
2,"Cc1cc2nc(-c3cccnc3)[nH]c2cc1C [Compound 30, 5,6-dimethyl-2-(pyridin-3-yl)-1H-benzo[d]imidazole]",≥ 10
3,"CCCN(CCC)S(=O)(=O)c1ccc(-c2nc3cc(C)c(C)cc3[nH]2)cc1 [Compound 3, 4-(5,6-dimethyl-1H-benzo[d]imidazol-2-yl)-N,N-dipropylbenzenesulfonamide]",1 to 10
4,"O=c1[nH]nc(-c2ccc(-c3nc4cc(F)c(F)cc4[nH]3)cc2)o1 [Compound 55, 5-(4-(5,6-difluoro-1H-benzo[d]imidazol-2-yl)phenyl)-1,3,4-oxadiazol-2(3H)-one]",≤ 1
5,"Cc1cc2nc(-c3ccccn3)[nH]c2cc1C [Compound 25, 5,6-dimethyl-2-(pyridin-2-yl)-1H-benzo[d]imidazole]",≥ 10
6,"Cc1cc2nc(-c3ccc(C(C)(C)C)cc3)[nH]c2cc1C [Compound 26, 2-(4-(tert-butyl)phenyl)-5,6-dimethyl-1H-benzo[d]imidazole]",≤ 1
7,"Fc1cc2nc(-c3ccc(C(F)(F)F)cc3)[nH]c2cc1F [Compound 16, 5,6-difluoro-2-(4-(trifluoromethyl)phenyl)-1H-benzo[d]imidazole]",≤ 1
8,"Fc1ccc2[nH]c(-c3ccc(-c4ccccc4)cc3)nc2c1F [Compound 49, 2-([1,1′-biphenyl]-4-yl)-4,5-difluoro-1H-benzo[d]imidazole]",≥ 10
9,"Cc1cc2nc(-c3ccccc3O)[nH]c2cc1C [Compound 9, 2-(5,6-dimethyl-1H-benzo[d]imidazol-2-yl)phenol]",≥ 10
10,"Fc1cc2nc(-c3ccc(C(F)(F)F)cc3)[nH]c2cc1Cl [Compound 43, 6-chloro-5-fluoro-2-(4-(trifluoromethyl)phenyl)-1H-benzo[d]imidazole]",≤ 1
11,"Cc1cc2nc(-c3ccc(=O)[nH]c3)[nH]c2cc1C [Compound 23, 5-(5,6-dimethyl-1H-benzo[d]imidazol-2-yl)pyridin-2(1H)-one]",≥ 10
12,"Fc1cc2nc(-c3ccnc(C(F)(F)F)c3)[nH]c2cc1F [Compound 50, 5,6-difluoro-2-(2-(trifluoromethyl)pyridin-4-yl)-1H-benzo[d]imidazole]",1 to 10
13,"Cc1ccc(-c2nc3cc(C)c(C)cc3[nH]2)cn1 [Compound 21, 5,6-dimethyl-2-(6-methylpyridin-3-yl)-1H-benzo[d]imidazole]",1 to 10
14,"COc1cc2nc(-c3ccc(C(F)(F)F)cc3)[nH]c2cc1OC [Compound 42, 5,6-dimethoxy-2-(4-(trifluoromethyl)phenyl)-1H-benzo[d]imidazole]",1 to 10
15,"Fc1ccc2[nH]c(-c3ccc(C(F)(F)F)cc3)nc2c1F [Compound 48, 4,5-difluoro-2-(4-(trifluoromethyl)phenyl)-1H-benzo[d]imidazole]",≤ 1
16,"Cc1cc2nc(Nc3ccc(C(C)(C)C)cc3)[nH]c2cc1C [Compound 6, N-(4-(tert-butyl)phenyl)-5,6-dimethyl-1H-benzo[d]imidazol-2-amine]",1 to 10
17,"Cc1cc2nc(Nc3ccc(OC(F)(F)F)cc3)[nH]c2cc1C [Compound 4, 5,6-dimethyl-N-(4-(trifluoromethoxy)phenyl)-1H-benzo[d]imidazol-2-amine]",1 to 10
18,"COc1cc(-c2nc3cc(C)c(C)cc3[nH]2)ccn1 [Compound 24, 2-(2-methoxypyridin-4-yl)-5,6-dimethyl-1H-benzo[d]imidazole]",1 to 10
19,"Cc1cc2nc(Oc3ccc(Br)cc3)[nH]c2cc1C [Compound 11, 2-(4-bromophenoxy)-5,6-dimethyl-1H-benzo[d]imidazole]",≥ 10
20,"O=C(Cc1ccccc1)Nc1nc2ccccc2[nH]1 [Compound 13, N-(1H-benzo[d]imidazol-2-yl)-2-phenylacetamide]",≥ 10

row,SMILES,IC50 [µM]
1,"Cc1cc2nc(-c3ccc(-c4ccccc4)cc3)[nH]c2cc1C [Compound 20, 2-([1,1′-biphenyl]-4-yl)-5,6-dimethyl-1H-benzo[d]imidazole]",≤ 1
2,"CCc1ccc(-c2nc3ccccc3[nH]2)cc1 [Compound 37, 2-(4-ethylphenyl)-1H-benzo[d]imidazole]",1 to 10
3,"Cc1cc2nc(-c3ccnn3C)[nH]c2cc1C [Compound 31, 5,6-dimethyl-2-(1-methyl-1H-pyrazol-5-yl)-1H-benzo[d]imidazole]",≥ 10
4,"FC(F)(F)c1ccc(-c2nc3cc(Br)c(Br)cc3[nH]2)cc1 [Compound 38, 5,6-dibromo-2-(4-(trifluoromethyl)phenyl)-1H-benzo[d]imidazole]",≥ 10
5,"N#Cc1ccc(-c2nc3cc(F)c(F)cc3[nH]2)cc1 [Compound 54, 4-(5,6-difluoro-1H-benzo[d]imidazol-2-yl)benzonitrile]",≤ 1
6,"Fc1cc2nc(-c3ccc(-c4ccncc4)cc3)[nH]c2cc1F [Compound 59, 5,6-difluoro-2-(4-(pyridin-4-yl)phenyl)-1H-benzo[d]imidazole]",1 to 10
7,"COc1ccc(-c2nc3cc(F)c(F)cc3[nH]2)cc1 [Compound 46, 5,6-difluoro-2-(4-methoxyphenyl)-1H-benzo[d]imidazole]",≤ 1
8,"Cc1cc2nc(-c3ccc(F)cn3)[nH]c2cc1C [Compound 22, 2-(5-fluoropyridin-2-yl)-5,6-dimethyl-1H-benzo[d]imidazole]",1 to 10
9,"CCc1ccc(-c2nc3cc(C)c(C)cc3[nH]2)cc1 [Compound 5, 2-(4-ethylphenyl)-5,6-dimethyl-1H-benzo[d]imidazole]",≤ 1
10,"Fc1cc2nc(-c3ccc(-c4ccccc4)cc3)[nH]c2cc1Br [Compound 45, 2-([1,1′-biphenyl]-4-yl)-6-bromo-5-fluoro-1H-benzo[d]imidazole]",≤ 1
11,"c1ccc(-c2nc3ccccc3[nH]2)c(-c2nc3ccccc3[nH]2)c1 [Compound 15, 1,2-bis(1H-benzo[d]imidazol-2-yl)benzene]",≥ 10
12,"Oc1ccc(-c2nc3cc(F)c(F)cc3[nH]2)cc1 [Compound 33, 4-(5,6-difluoro-1H-benzo[d]imidazol-2-yl)phenol]",≥ 10
13,"Cc1cc2nc(C3CCN(C)CC3)[nH]c2cc1C [Compound 18, 5,6-dimethyl-2-(1-methylpiperidin-4-yl)-1H-benzo[d]imidazole]",≥ 10
14,"CC(=O)Nc1ccc(-c2nc3cc(F)c(F)cc3[nH]2)cc1 [Compound 47, N-(4-(5,6-difluoro-1H-benzo[d]imidazol-2-yl)phenyl)acetamide]",≥ 10
15,O=C(O)c1ccc(-c2nc3cc(F)c(F)cc3[nH]2)cc1 [Compound 56],≤ 1
16,"Fc1cc2nc(-c3ccc(-c4nnn[nH]4)cc3)[nH]c2cc1F [Compound 61, 2-(4-(1H-tetrazol-5-yl)phenyl)-5,6-difluoro-1H-benzo[d]imidazole]",≥ 10
17,"Cc1cc2nc(-c3ccc(C(F)(F)F)cc3)[nH]c2cc1C [Compound 19, 5,6-dimethyl-2-(4-(trifluoromethyl)phenyl)-1H-benzo[d]imidazole]",≤ 1
18,"Fc1cc2nc(-c3ccc(Oc4ccccc4)cc3)[nH]c2cc1F [Compound 53, 5,6-difluoro-2-(4-phenoxyphenyl)-1H-benzo[d]imidazole]",≤ 1
19,"Fc1cc2nc(-c3ccoc3)[nH]c2cc1F [Compound 32, 5,6-difluoro-2-(furan-3-yl)-1H-benzo[d]imidazole]",≥ 10

# Reference: US20230192626A1 (Baylor College of Medicine, priority 2020, published 2023)
